This note sets out measurements from ChEMBL document CHEMBL4765372, “Design, synthesis and anti-inflammatory activity of 3-amino acid derivatives of ocotillol-type sapogenins” (Eur J Med Chem, 2020).

Activity calls are given as the source filed them. No cut-off for these calls is given here.

For data set [1], the system named is RAW264.7. In words: Cytotoxicity against mouse RAW264.7 assessed as reduction in cell viability at 20 uM measured after 24 hrs by MTT assay relative to control. Format: cell-based. Conditions: raw264.7, 24 h. On the technique in general: Tetrazolium dyes change colour on reduction, which living cells bring about.
Data set [2] relates to RAW264.7. In words: Antiinflammatory activity in mouse RAW264.7 cells assessed as inhibition of LPS-induced NO production at 20 uM after 24 hrs by Griess method. Format: functional, cell-based. Background: Nitrite, measured by Griess reagent, commonly stands in for NO production.
In data set [3] the test system is RAW264.7. In words: Inhibition of LPS-induced TNFalpha protein expression in mouse RAW264.7 cells upto 30 uM measured after 6 hrs by ELISA. The class given is functional, cell-based. Conditions: dose microM <=30, time 6.0 hrs.
Data set [4] deals with RAW264.7. In words: Inhibition of LPS-induced IL-6 protein expression in mouse RAW264.7 cells upto 30 uM measured after 6 hrs by ELISA. The class given is functional, cell-based. Conditions: dose microM <=30, time 6.0 hrs.
The subject of data set [5] is RAW264.7. In words: Inhibition of LPS-induced NO production in mouse RAW264.7 cells assessed as reduction in iNOS protein expression measured after 24 hrs by Western blot analysis. Format: functional, cell-based. Particulars: dose microM <=30, time 24.0 hrs. Background: A western blot detects proteins with antibodies after separation by electrophoresis.
Data set [6] concerns RAW264.7. In words: Inhibition of LPS-induced NO production in mouse RAW264.7 cells assessed as reduction in COX-2 protein expression measured after 24 hrs by Western blot analysis. The class given is functional, cell-based. Conditions: dose microM <=30, time 24.0 hrs.
The subject of data set [7] is RAW264.7. In words: Inhibition of LPS-stimulated NFkappaB activation in mouse RAW264.7 cells assessed as reduction in LPS-induced IkappaB phosphorylation at 7.5 to 30 uM after 2 hrs by Western blot analysis. Particulars: dose 7.5-30 µM. Format: cell-based.
In data set [8] the target is Transcription factor p65 (Mus musculus) (UniProt Q04207). In words: Inhibition of LPS-induced NFkappaB p65 nucleus translocation in mouse RAW264.7 cells at 30 uM measured after 2 hr by immunofluorescence microscopic analysis. Format: cell-based.
For data set [9], the system named is RAW264.7. In words: Inhibition of LPS-induced JNK phosphorylation in mouse RAW264.7 cell upto 30 uM measured after 2 hr by Western blot analysis. Conditions: dose microM <=30, time 2.0 hrs.
Data set [10] has as its target Mitogen-activated protein kinase 1 and 3 (ERK2 and ERK1) (Mus musculus) (UniProt P63085+Q63844). In words: Inhibition of LPS-induced ERK1/2 phosphorylation in mouse RAW264.7 cell upto 30 uM measured after 2 hr by Western blot analysis. Conditions: dose microM <=30, time 2.0 hrs.
Data set [11] deals with RAW264.7. In words: Inhibition of LPS-induced p38 phosphorylation in mouse RAW264.7 cell upto 30 uM measured after 2 hr by Western blot analysis. Conditions: dose microM <=30, time 2.0 hrs.

Chain of Transcription factor p65 (Mus musculus) (Q04207 whole entry): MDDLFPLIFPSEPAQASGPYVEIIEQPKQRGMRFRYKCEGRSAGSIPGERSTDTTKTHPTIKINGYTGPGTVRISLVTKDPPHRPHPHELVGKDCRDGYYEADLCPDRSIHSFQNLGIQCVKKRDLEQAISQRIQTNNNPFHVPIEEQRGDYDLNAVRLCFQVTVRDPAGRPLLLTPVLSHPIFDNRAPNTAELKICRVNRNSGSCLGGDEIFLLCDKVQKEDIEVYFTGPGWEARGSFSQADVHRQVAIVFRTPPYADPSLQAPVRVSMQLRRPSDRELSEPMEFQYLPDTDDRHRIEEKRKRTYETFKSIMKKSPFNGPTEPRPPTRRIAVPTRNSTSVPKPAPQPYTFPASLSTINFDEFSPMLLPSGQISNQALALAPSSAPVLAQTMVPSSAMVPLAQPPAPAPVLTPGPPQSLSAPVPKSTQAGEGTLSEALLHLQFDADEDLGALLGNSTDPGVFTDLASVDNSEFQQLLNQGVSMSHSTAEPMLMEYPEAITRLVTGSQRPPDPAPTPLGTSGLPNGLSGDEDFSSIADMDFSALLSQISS
Chain of Mitogen-activated protein kinase 1 and 3 (ERK2 and ERK1) (Mus musculus) (P63085 whole entry, looked up): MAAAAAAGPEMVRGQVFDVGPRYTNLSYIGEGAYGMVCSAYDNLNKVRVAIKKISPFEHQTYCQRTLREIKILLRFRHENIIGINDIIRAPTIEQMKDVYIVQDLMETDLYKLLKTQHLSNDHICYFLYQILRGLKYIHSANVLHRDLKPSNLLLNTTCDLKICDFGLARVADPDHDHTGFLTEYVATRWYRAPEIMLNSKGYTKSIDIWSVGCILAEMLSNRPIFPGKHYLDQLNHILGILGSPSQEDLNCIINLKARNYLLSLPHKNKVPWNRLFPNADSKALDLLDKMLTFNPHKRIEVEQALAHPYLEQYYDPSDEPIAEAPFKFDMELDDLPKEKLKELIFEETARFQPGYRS
Chain of Mitogen-activated protein kinase 1 and 3 (ERK2 and ERK1) (Mus musculus) (Q63844 whole entry, looked up): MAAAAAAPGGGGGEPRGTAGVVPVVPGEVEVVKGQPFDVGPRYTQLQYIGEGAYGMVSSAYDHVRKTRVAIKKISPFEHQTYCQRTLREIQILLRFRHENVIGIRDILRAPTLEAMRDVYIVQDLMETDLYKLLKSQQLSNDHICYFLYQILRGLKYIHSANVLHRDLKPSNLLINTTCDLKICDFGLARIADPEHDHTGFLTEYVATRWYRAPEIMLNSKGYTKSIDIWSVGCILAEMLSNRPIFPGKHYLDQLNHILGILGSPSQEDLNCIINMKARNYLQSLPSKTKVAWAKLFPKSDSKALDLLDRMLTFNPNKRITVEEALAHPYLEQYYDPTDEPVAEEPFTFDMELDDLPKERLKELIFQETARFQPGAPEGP

Regarding `CC(C)(O)[C@@H]1CC[C@@](C)([C@H]2CC[C@]3(C)[C@@H]2[C@H](O)C[C@@H]2[C@@]4(C)CC[C@H](OC(=O)[C@@H](N)CCCCN)C(C)(C)[C@@H]4CC[C@]23C)O1`, the Activity entry in the data set on RAW264.7 [1] is listed as “Non-Toxic”.
On to `CC(C)(C)OC(=O)NCCCC[C@H](NC(=O)OC(C)(C)C)C(=O)O[C@H]1CC[C@]2(C)[C@H]3C[C@@H](O)[C@@H]4[C@@H]([C@]5(C)CC[C@@H](C(C)(C)O)O5)CC[C@@]4(C)[C@]3(C)CC[C@H]2C1(C)C`, for which, in the data set on RAW264.7 [1], the Activity result is reported as “Non-Toxic”. Moreover, the result in the data set on RAW264.7 [2] was Active.
Taken in the same sequence, the figures for `CC(C)(C)OC(=O)NCC(=O)O[C@H]1CC[C@]2(C)[C@H]3C[C@@H](O)[C@@H]4[C@@H]([C@]5(C)CC[C@@H](C(C)(C)O)O5)CC[C@@]4(C)[C@]3(C)CC[C@H]2C1(C)C` were “Non-Toxic” and “Active”.
`CC(C)(O)[C@H]1CC[C@@](C)([C@H]2CC[C@]3(C)[C@@H]2[C@H](O)C[C@@H]2[C@@]4(C)CC[C@H](OC(=O)[C@@H](N)Cc5ccccc5)C(C)(C)[C@@H]4CC[C@]23C)O1`: the Activity result with RAW264.7 [1] is given as “Non-Toxic”.
For the compound `CC(C)(C)OC(=O)NCC(=O)O[C@H]1CC[C@]2(C)[C@H]3C[C@@H](O)[C@@H]4[C@@H]([C@]5(C)CC[C@H](C(C)(C)O)O5)CC[C@@]4(C)[C@]3(C)CC[C@H]2C1(C)C`, the Activity result in the data set on RAW264.7 [1] is “Non-Toxic”. The outcome with RAW264.7 [2] was Active.
With `CC(C)(C)OC(=O)NCC(=O)NCC(=O)NCC(=O)O[C@H]1CC[C@]2(C)[C@H]3C[C@@H](O)[C@@H]4[C@@H]([C@]5(C)CC[C@@H](C(C)(C)O)O5)CC[C@@]4(C)[C@]3(C)CC[C@H]2C1(C)C`, the Activity entry in the data set on RAW264.7 [1] is given as “Non-Toxic”.
For the compound `CC(C)(C)OC(=O)N[C@@H](Cc1ccccc1)C(=O)O[C@H]1CC[C@]2(C)[C@H]3C[C@@H](O)[C@@H]4[C@@H]([C@]5(C)CC[C@@H](C(C)(C)O)O5)CC[C@@]4(C)[C@]3(C)CC[C@H]2C1(C)C`, the Activity result with RAW264.7 [1] is reported as “Non-Toxic”.
Regarding `CC(C)(O)[C@H]1CC[C@@](C)([C@H]2CC[C@]3(C)[C@@H]2[C@H](O)C[C@@H]2[C@@]4(C)CC[C@H](OC(=O)CNC(=O)CN)C(C)(C)[C@@H]4CC[C@]23C)O1`, the Activity result in the data set on RAW264.7 [1] is “Non-Toxic”. Further, the result in the data set with RAW264.7 [2] was Active.
Consider `CC(C)(O)[C@H]1CC[C@@](C)([C@H]2CC[C@]3(C)[C@@H]2[C@H](O)C[C@@H]2[C@@]4(C)CC[C@H](OC(=O)CN)C(C)(C)[C@@H]4CC[C@]23C)O1`, for which, in the data set on RAW264.7 [1], the Activity result is reported as “Non-Toxic”. For the same compound, the result with RAW264.7 [2] was Active.
Taken in the same sequence, the figures for `CC(C)(O)[C@H]1CC[C@@](C)([C@H]2CC[C@]3(C)[C@@H]2[C@H](O)C[C@@H]2[C@@]4(C)CC[C@H](OC(=O)CNC(=O)CNC(=O)CN)C(C)(C)[C@@H]4CC[C@]23C)O1` were “Non-Toxic” and “Active”.
With `CC(C)(C)OC(=O)CC[C@H](NC(=O)OC(C)(C)C)C(=O)O[C@H]1CC[C@]2(C)[C@H]3C[C@@H](O)[C@@H]4[C@@H]([C@]5(C)CC[C@@H](C(C)(C)O)O5)CC[C@@]4(C)[C@]3(C)CC[C@H]2C1(C)C`, the Activity result in the data set on RAW264.7 [1] is listed as “Non-Toxic”.
For `CC(C)(O)[C@H]1CC[C@@](C)([C@H]2CC[C@]3(C)[C@@H]2[C@H](O)C[C@@H]2[C@@]4(C)CC[C@H](OC(=O)[C@@H](N)CCC(=O)O)C(C)(C)[C@@H]4CC[C@]23C)O1`, the Activity result in the data set on RAW264.7 [1] is recorded as “Non-Toxic”. Moreover, the outcome in the data set on RAW264.7 [2] was Active.
As for `CC(C)(C)OC(=O)CC[C@H](NC(=O)OC(C)(C)C)C(=O)O[C@H]1CC[C@]2(C)[C@H]3C[C@@H](O)[C@@H]4[C@@H]([C@]5(C)CC[C@H](C(C)(C)O)O5)CC[C@@]4(C)[C@]3(C)CC[C@H]2C1(C)C`, the Activity result with RAW264.7 [1] is given as “Non-Toxic”.
Still for that read-out and setting: the value for `CC(C)(C)OC(=O)N[C@@H](Cc1ccccc1)C(=O)O[C@H]1CC[C@]2(C)[C@H]3C[C@@H](O)[C@@H]4[C@@H]([C@]5(C)CC[C@H](C(C)(C)O)O5)CC[C@@]4(C)[C@]3(C)CC[C@H]2C1(C)C` was “Non-Toxic”.
In the case of `CC(C)(C)OC(=O)NCC(=O)NCC(=O)O[C@H]1CC[C@]2(C)[C@H]3C[C@@H](O)[C@@H]4[C@@H]([C@]5(C)CC[C@@H](C(C)(C)O)O5)CC[C@@]4(C)[C@]3(C)CC[C@H]2C1(C)C`, the Activity entry in the data set with RAW264.7 [1] is listed as “Non-Toxic”. Moreover, in the data set on RAW264.7 [2], the outcome was Active.
Taken in the same sequence, the figures for `CC(C)(O)[C@@H]1CC[C@@](C)([C@H]2CC[C@]3(C)[C@@H]2[C@H](O)C[C@@H]2[C@@]4(C)CC[C@H](OC(=O)CNC(=O)CN)C(C)(C)[C@@H]4CC[C@]23C)O1` were “Non-Toxic” and “Active”.
In the case of `C[C@]12CCC(=O)C=C1CC[C@@H]1[C@@H]2[C@@H](O)C[C@@]2(C)[C@H]1CC[C@]2(O)C(=O)COC(=O)CCC(=O)[O-].[Na+]` [HYDROCORTISONE SODIUM SUCCINATE], the Activity entry in the data set with RAW264.7 [1] is given as “Non-Toxic”.
As to `CC(C)(C)OC(=O)NCC(=O)NCC(=O)O[C@H]1CC[C@]2(C)[C@H]3C[C@@H](O)[C@@H]4[C@@H]([C@]5(C)CC[C@H](C(C)(C)O)O5)CC[C@@]4(C)[C@]3(C)CC[C@H]2C1(C)C`, in the data set with RAW264.7 [1], the Activity entry is “Non-Toxic”. Also, in the data set with RAW264.7 [2], the outcome was Active. Further, the inhibition result (with RAW264.7 [3]; in the data set with RAW264.7 [4]; in the data set on RAW264.7 [5]; with RAW264.7 [6]; in the data set with RAW264.7 [7]; in data set [8]) was “Dose-dependent effect” throughout. Moreover, the inhibition entry (in data set [10]; in the data set with RAW264.7 [11]) was “Dose-dependent effect” in each case. The inhibition result with RAW264.7 [9] is “inactive”.
For the compound `CC(C)(O)[C@H]1CC[C@@](C)([C@H]2CC[C@]3(C)[C@@H]2[C@H](O)C[C@@H]2[C@@]4(C)CC[C@H](OC(=O)[C@@H](N)CCCCN)C(C)(C)[C@@H]4CC[C@]23C)O1`, the Activity result in the data set on RAW264.7 [1] was “Non-Toxic”.
`CC(C)(C)OC(=O)NCC(=O)NCC(=O)NCC(=O)O[C@H]1CC[C@]2(C)[C@H]3C[C@@H](O)[C@@H]4[C@@H]([C@]5(C)CC[C@H](C(C)(C)O)O5)CC[C@@]4(C)[C@]3(C)CC[C@H]2C1(C)C`: the Activity entry in the data set with RAW264.7 [1] is given as “Non-Toxic”. In addition, the result with RAW264.7 [2] was inactive.
Taken in the same sequence, the figures for `CC(C)(C)OC(=O)NCCCC[C@H](NC(=O)OC(C)(C)C)C(=O)O[C@H]1CC[C@]2(C)[C@H]3C[C@@H](O)[C@@H]4[C@@H]([C@]5(C)CC[C@H](C(C)(C)O)O5)CC[C@@]4(C)[C@]3(C)CC[C@H]2C1(C)C` were “Non-Toxic” and “Active”.
With `CC(C)(O)[C@H]1CC[C@@](C)([C@H]2CC[C@]3(C)[C@@H]2[C@H](O)C[C@@H]2[C@@]4(C)CC[C@H](O)C(C)(C)[C@@H]4CC[C@]23C)O1`, the Activity result with RAW264.7 [1] is recorded as “Non-Toxic”. For the same compound, the result in the data set on RAW264.7 [2] was Active.
The like results for `CC(C)(O)[C@@H]1CC[C@@](C)([C@H]2CC[C@]3(C)[C@@H]2[C@H](O)C[C@@H]2[C@@]4(C)CC[C@H](OC(=O)CN)C(C)(C)[C@@H]4CC[C@]23C)O1` were, in that order, “Non-Toxic” and “Active”.
The like results for `CC(C)(O)[C@@H]1CC[C@@](C)([C@H]2CC[C@]3(C)[C@@H]2[C@H](O)C[C@@H]2[C@@]4(C)CC[C@H](OC(=O)[C@@H](N)CCC(=O)O)C(C)(C)[C@@H]4CC[C@]23C)O1` were, in that order, “Non-Toxic” and “Active”.
Taken in the same sequence, the figures for `CC(C)(O)[C@@H]1CC[C@@](C)([C@H]2CC[C@]3(C)[C@@H]2[C@H](O)C[C@@H]2[C@@]4(C)CC[C@H](OC(=O)CNC(=O)CNC(=O)CN)C(C)(C)[C@@H]4CC[C@]23C)O1` were “Non-Toxic” and “Active”.
In the case of `CC(C)(O)[C@@H]1CC[C@@](C)([C@H]2CC[C@]3(C)[C@@H]2[C@H](O)C[C@@H]2[C@@]4(C)CC[C@H](OC(=O)[C@@H](N)Cc5ccccc5)C(C)(C)[C@@H]4CC[C@]23C)O1`, the Activity result in the data set on RAW264.7 [1] is listed as “Non-Toxic”.
Regarding `CC(C)(O)[C@@H]1CC[C@@](C)([C@H]2CC[C@]3(C)[C@@H]2[C@H](O)C[C@@H]2[C@@]4(C)CC[C@H](O)C(C)(C)[C@@H]4CC[C@]23C)O1`, in the data set with RAW264.7 [1], the Activity result is “Non-Toxic”. Further, in the data set on RAW264.7 [2], the outcome was Active.
